Test results: paper PMC4411481, “Cyclic nucleotide binding and structural changes in the isolated GAF domain of Anabaena adenylyl cyclase, CyaB2” (PeerJ, 2015)
Where two headings read alike, the source gives them in different places.

Tests used:
[1] = molecular target: T1, isolated GAFb domain of CyaB2 (residues Leu 270 to Leu 431, GST fusion) (Nostoc sp. PCC 7120 (Anabaena sp. PCC 7120), UniProt P94182); assay: Cyclic nucleotide binding assay (3H-cAMP competition), GST-GAFb
T1 sequence (P94182 270-431): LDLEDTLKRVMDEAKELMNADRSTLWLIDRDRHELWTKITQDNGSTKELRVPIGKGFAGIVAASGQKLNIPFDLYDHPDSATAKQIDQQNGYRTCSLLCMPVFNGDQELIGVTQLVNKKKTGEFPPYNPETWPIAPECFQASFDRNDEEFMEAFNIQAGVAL

[2] = molecular target: T2, tandem GAFab domains of CyaB2 (residues S77 to L431, GST fusion) (Nostoc sp. PCC 7120 (Anabaena sp. PCC 7120), UniProt P94182); assay: biochemical; type: binding
T2 sequence (P94182 77-431): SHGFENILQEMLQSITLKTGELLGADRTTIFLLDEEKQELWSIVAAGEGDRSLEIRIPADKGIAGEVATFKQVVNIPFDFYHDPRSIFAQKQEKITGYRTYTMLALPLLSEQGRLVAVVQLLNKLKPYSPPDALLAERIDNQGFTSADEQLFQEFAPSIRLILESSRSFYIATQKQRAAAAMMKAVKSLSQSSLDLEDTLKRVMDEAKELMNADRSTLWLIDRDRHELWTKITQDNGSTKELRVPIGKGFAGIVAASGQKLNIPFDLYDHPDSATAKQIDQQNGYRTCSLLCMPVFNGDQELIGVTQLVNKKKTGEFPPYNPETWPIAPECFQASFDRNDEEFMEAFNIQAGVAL

[3] = system: tandem GAFab domains of CyaB2 (residues S77 to L431, GST fusion); assay: biochemical; type: binding, Anabaena sp. PCC 7120; details: tandem GAFab vs isolated GAFb
[4] = system: I308A mutant GAFb domain of CyaB2; type: binding, Anabaena sp. PCC 7120
[5] = system: T293A mutant GAFb domain of CyaB2; assay: Cyclic nucleotide binding assay, T293A mutant GAFb; design: species or system Anabaena sp. PCC 7120
[6] = system: GAFb sensor (GFP2-GAFb-Rluc); assay: In vitro BRET assay, GAFb sensor; type: biochemical, Anabaena sp. PCC 7120; details: cell lysate, 1 mM cNMP, 37 °C 10 min
PDE5 GAFa(F163A) sensor = molecular target: T3, PDE5 GAFa(F163A) sensor (Homo sapiens, UniProt O76074, F205A); assay: In vitro BRET assay, PDE5 GAFa(F163A) sensor; type: biochemical; details: cell lysate, 1 mM cNMP, 37 °C 10 min
T3 construct: We used the F163A mutant GAFa domain of PDE5; expressed in transfected cells; host or cells: HEK293T lysate

[7] = system: GAFab sensor (GFP2-GAFab-Rluc); assay: In vitro BRET assay, GAFab sensor; type: biochemical, Anabaena sp. PCC 7120; details: cell lysate, 1 mM cNMP
[8] = system: NterGAFab sensor (GFP2-NterGAFab-Rluc); assay: In vitro BRET assay, NterGAFab sensor; type: biochemical, Anabaena sp. PCC 7120; details: cell lysate, 1 mM cNMP
[9] = system: CyaB1-CyaB2 fusion protein; details: read-out: EC50, cAMP-mediated activation of a related adenylyl cyclase domain; ref Bruder et al., 2005; cited from earlier work
[10] = system: HEK293T cells expressing the GAFb sensor; assay: Cellular BRET assay, GAFb sensor; type: cell-based, Human; details: 100 µM; forskolin 5 min, SNP 2 min, 37 °C
HEK293T cells = assay: Intracellular cNMP estimation by radioimmunoassay; type: cell-based, Human; details: 100 µM forskolin, 5 min
Protocol: Intracellular levels of cyclic nucleotide monophosphates (cNMP) were measured from the cells used for BRET measurements, or […] transfected and treated cells. Cells were lysed in 0.1 N HCl and cNMP was measured by radioimmunoassay as described earlier ([Bakre, […], 2000]).

T3 sequence (O76074 148-315 F205A): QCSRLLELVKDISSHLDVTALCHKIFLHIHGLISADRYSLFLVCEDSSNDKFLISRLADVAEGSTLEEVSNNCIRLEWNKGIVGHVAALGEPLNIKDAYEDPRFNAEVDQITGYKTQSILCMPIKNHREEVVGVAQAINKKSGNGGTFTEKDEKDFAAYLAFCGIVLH

Nc1nc2c(ncn2[C@@H]2O[C@@H]3COP(=O)(O)O[C@H]3[C@H]2O)c(=O)[nH]1 [cGMP, guanosine 3′, 5′—cyclic monophosphate]
IC50 ([1]; isolated GAFb, ∼1 nM 3H-cAMP): 7.6 ± 1.9 µM
IC50 ([2]; tandem GAFab, ∼1 nM 3H-cAMP, read-out: IC50, competition with 3H-cAMP binding): 2650 µM
fold lower affinity compared to the isolated GAFb domain [3]: 348 fold
change in affinity vs wild type GAFb [4]: remained unaltered
change in affinity vs wild type GAFb [5]: reduction in the affinity
change in BRET ratio [6]: no change in the BRET ratio
change in BRET ratio (PDE5 GAFa(F163A) sensor): large increase in the BRET ratio
change in BRET [7]: did not result in a significant alteration
change in BRET [8]: did not result in a significant alteration

Nc1ncnc2c1ncn2[C@@H]1O[C@@H]2COP(=O)(O)O[C@H]2[C@H]1O [cAMP, adenosine 3′, 5′—cyclic monophosphate]
Kd [1]: 0.8 ± 0.2 µM
IC50 [2]: 0.05 ± 0.02 µM
fold higher affinity than the isolated GAFb domain [3]: 16 fold
change in affinity vs wild type GAFb [4]: significant reduction in the affinity
change in affinity vs wild type GAFb [5]: no change in the affinity
change in BRET ratio [6]: no change in the BRET ratio
change in BRET ratio (PDE5 GAFa(F163A) sensor): large increase in the BRET ratio
change in BRET [7]: did not result in a significant alteration
change in BRET [8]: did not result in a significant alteration
EC50 [9]: ~1.3 µM

C=C[C@@]1(C)CC(=O)[C@]2(O)[C@@]3(C)[C@@H](O)CCC(C)(C)[C@@H]3[C@H](O)[C@H](OC(C)=O)[C@@]2(C)O1 [forskolin]
change in BRET ratios in live cells [10]: no significant changes
intracellular levels of cAMP (HEK293T cells): increased intracellular levels
